Like-named read-outs stand apart in the source and are kept apart here.
Columns and labels:
H1299 p53 Y220C = assay: Cell Proliferation Assay (CellTiter-Glo, CTG), H1299 p53 Y220C (NClH1299-inducible p53 Y220C); assay type: cell-based; details: Homo sapiens, NCI-H1299, 120 h, CellTiter-Glo, 5 days
Outline: (§1)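 Tet-One inducible p53 Y220C or R273H constructs were stably introduced into NCI-H1299 by lentiviral transduction; NUGC3 was used as is. Cells (250-500 per well) were exposed to compound for 5 days, then CellTiter-Glo was added for 10 min at room temperature and IC50 was calculated from luminescence.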

H1299 p53 R273H = assay: Cell Proliferation Assay (CellTiter-Glo, CTG), H1299 p53 R273H (NClH1299-inducible p53 R273H); assay type: cell-based; details: Homo sapiens, NCI-H1299, 120 h, CellTiter-Glo, 5 days
Outline: as §1

NUGC3 p53 Y220C = assay: Cell Proliferation Assay (CellTiter-Glo, CTG), NUGC3 p53 Y220C; assay type: cell-based; details: Homo sapiens, NUGC-3, 120 h, CellTiter-Glo, 5 days
Outline: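 NClH1299 lines stably transduced with Tet-inducible p53 Y220C or R273H, plus NUGC3, were treated with compound for 5 days at 250-500 cells/well. IC50 derived from CellTiter-Glo luminescent signal after 10 min room-temperature incubation.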

[1] = molecular target: T1, p53 Y220C mutant protein (amino acid residues 94-293) (Homo sapiens, UniProt P04637, Y220C); assay: Surface Plasmon Resonance (SPR) assay, Kd_kinetic; assay type: binding; details: SPR, p53 Y220C, read-out: SPR P53 Y220C KD kinetic
T1 construct: p53 Y220C mutant protein (amino acid residues 94-293)
Outline: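 Kd values come from fitting sensorgrams to a 1:1 binding model. Sensorgrams were recorded on a Biacore 8K at 16 or 20 °C in pH 7.5 Tris buffer with 100 mM NaCl, 1 mM DTT, detergents and 1% DMSO.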

[2] = molecular target: T1, p53 Y220C mutant protein (amino acid residues 94-293); assay: Thermal Shift Assay (TSA), dTM; assay type: binding; details: for ΔTm at 100 µM: 100 uM compound, read-out: TSA P53 Y220C dTM (100 uM); for ΔTm at 10 µM: 10 uM compound
Outline: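 5 μM protein + 10 μM or 100 μM cpd, 3 h, 20 °C; 20 mM HEPES pH7.4, 100 mM NaCl, 0.01% Pluronic F-127, 1% DMSO, Sypro Orange 400-fold dil. Ramp 30→50 °C, 0.03 °C/s. TM by Boltzmann two-state fit.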

p53 Y220C = p53 Y220C (Homo sapiens, UniProt P04637, Y220C); assay: Luciferase Reporter Assay (Luc), p53 response element, NClH1299 cells with inducible p53 Y220C; assay type: cell-based; details: luciferase reporter, NClH1299 inducible p53 Y220C, 6 hour; for AC50: read-out: Luc P53 Y220C AC50
Outline: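 Steps: seed 5,000 cells/well; induce mutant p53 with 0.5 ug/mL doxycycline for 24 h; treat with compound 6 h; add equal volume One-Glo, shake 5 min at room temperature; measure luciferase immediately.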

[3] = 10 uM tool compound as positive control
[4] = NClH1299-inducible p53 Y220C cells
[5] = NClH1299-inducible p53 R273H cells
[6] = p53 Y220C, read-out: TSA P53 Y220C dTM
[7] = thermal shift, read-out: TSA P53 Y220C dTM (10 uM)

| Structure (SMILES) | IC50 (H1299 p53 Y220C; H1299 p53 Y220C) [nM] | IC50 (H1299 p53 R273H; H1299 p53 R273H) [nM] | IC50 (NUGC3 p53 Y220C; NUGC3 p53 Y220C) [nM] | Kd ([1]; kinetic KD) [nM] | ΔTm at 100 µM ([2]; thermal shift) [°C] | Emax (p53 Y220C; [3]) [%] | AC50 (p53 Y220C) [nM] | IC50 (H1299 p53 Y220C; [4]) [nM] | IC50 (H1299 p53 R273H; [5]) [nM] | IC50 (NUGC3 p53 Y220C; NUGC3 cells) [nM] | Kd [1] [nM] | ΔTm at 10 µM [2, 6] [°C] | AC50 (p53 Y220C; AC50) [nM] | Emax (p53 Y220C; Emax) [%] | ΔTm at 10 µM [2, 7] [°C] |
| --- | --- | --- | --- | --- | --- | --- | --- | --- | --- | --- | --- | --- | --- | --- | --- |
| CNC(=O)c1ccc(NCC#Cc2nc3c(N[C@@H]4CCN(C)C[C@@H]4F)cccn3c2C(F)(F)F)c(OC)c1 [Example 97, 4-{[3-(8-{[(3S,4R)-3-fluoro-1-methylpiperidin-4-yl]amino}-3-(trifluoromethyl)imidazo [1,2-a]pyridin-2-yl)prop-2-yn-1-yl]amino}-3-methoxy-N-methylbenzamide] | > 3000 | ≥ 10000 | > 3000 | 100 to 1000 | 5 to 10 | < 70 | > 3000 |  |  |  |  |  |  |  |  |
| CNC(=O)c1ccc(OC2COC2)c(NCC#Cc2cc3c(N[C@@H]4CCN(C)C[C@@H]4F)nccn3c2SC(F)(F)F)c1 [Example 336] |  |  |  |  |  |  |  | < 750 | < 5000 | < 750 | < 10 | ≥ 10 | < 750 | > 90 |  |
| CNC(=O)c1ccc(OC)c(NCC#Cc2nn3c(N[C@@H]4CCNC[C@@H]4F)cccc3c2SC(F)(F)F)n1 [Example 237] |  |  |  |  |  |  |  | < 750 | 5000 to 8000 | < 750 | < 10 | ≥ 10 | < 750 | 70 to 80 |  |
| CN1CC[C@@H](Nc2cccn3c(CC(F)(F)F)c(C#CCNc4ccc(S(C)(=O)=O)cc4)nc23)[C@@H](F)C1 [Example 76, (3S,4R)-3-fluoro-N-(2-{3-[(4-methanesulfonylphenyl)amino]prop-1-yn-1-yl}-3-(2,2,2-trifluoroethyl)imidazo[1,2-a]pyridin-8-yl)-1-methylpiperidin-4-amine] | 750 to 1500 | ≥ 10000 | 750 to 1500 | < 10 | 5 to 10 | 70 to 80 | 1500 to 3000 |  |  |  |  |  |  |  |  |
| CNC(=O)c1cc(F)c(OC)c(NCC#Cc2nc3c(N[C@@H]4CCN(C)C[C@@H]4F)cccn3c2SC(F)(F)F)c1 [Example 303] |  |  |  |  |  |  |  | < 750 | ≥ 10000 | < 750 | < 10 | ≥ 10 | < 750 | > 90 |  |
| CNC(=O)c1cnc(OC)c(NCC#Cc2cc3c(N[C@@H]4CN(C)C[C@@H]4F)cccn3c2SC(F)(F)F)c1 [Example 338] |  |  |  |  |  |  |  | < 750 | 5000 to 8000 | < 750 | < 10 | ≥ 10 | < 750 | > 90 |  |
| CNC(=O)c1ccc(OC)c(NCC#Cc2nc3c(N[C@@H]4CN(C)C[C@@H]4F)cccn3c2SC(F)(F)F)c1 [Example 153] | < 750 | ≥ 10000 | < 750 | < 10 | ≥ 10 | 80 to 90 | < 750 |  |  |  |  |  |  |  | ≥ 10 |
| COc1cc(C(=O)N2CCCC2)ccc1NCC#Cc1nc2c(N[C@@H]3CCN(C)C[C@@H]3F)cccn2c1CC(F)(F)F [Example 50, (3S,4R)-3-fluoro-N-[2-(3-{[2-methoxy-4-(pyrrolidine-1-carbonyl)phenyl]amino}prop-1-yn-1-yl)-3-(2,2,2-trifluoroethyl)imidazo[1,2-a]pyridin-8-yl]-1-methylpiperidin-4-amine] | 750 to 1500 | ≥ 10000 | 750 to 1500 | 10 to 100 | ≥ 10 | < 70 | 750 to 1500 |  |  |  |  |  |  |  |  |
| COc1ccc(C(=O)NC2CC2)cc1NCC#Cc1nc2c(N[C@@H]3CCN(C)C[C@@H]3F)cccn2c1SC(F)(F)F [Example 109, N-cyclopropyl-3-{[3-(8-{[(3S,4R)-3-fluoro-1-methylpiperidin-4-yl]amino}-3-[(trifluoromethyl)sulfanyl]imidazo[1,2-a]pyridin-2-yl)prop-2-yn-1-yl]amino}-4-methoxybenzamide] | < 750 | 8000 to 10000 | < 750 | < 10 | ≥ 10 | 80 to 90 | < 750 |  |  |  |  |  |  |  | ≥ 10 |
| CNC(=O)c1ccc(NCC#Cc2nc3c(N[C@H]4CCNC(=O)C4)cccn3c2SC(F)(F)F)c(OC)c1 [Example 174] | 1500 to 3000 | ≥ 10000 | 750 to 1500 | < 10 | ≥ 10 | 80 to 90 | 1500 to 3000 |  |  |  |  |  |  |  | ≥ 10 |
| CNC(=O)c1ccc(OC)c(NCC#Cc2nn3c(N[C@@H]4CN(C)C[C@@H]4F)cccc3c2SC(F)(F)F)n1 [Example 253] |  |  |  |  |  |  |  | < 750 | ≥ 10000 | < 750 | < 10 | ≥ 10 | < 750 | 80 to 90 |  |
| CCc1cc(C(=O)NC)ccc1NCC#Cc1nc2c(N[C@@H]3CCN(C)C[C@@H]3F)cccn2c1CC(F)(F)F [Example 58, 3-ethyl-4-{[3-(8-{[(3S,4R)-3-fluoro-1-methylpiperidin-4-yl]amino}-3-(2,2,2-trifluoroethyl)imidazo[1,2-a]pyridin-2-yl)prop-2-yn-1-yl]amino}-N-methylbenzamide] | > 3000 | ≥ 10000 | > 3000 | < 10 | 5 to 10 | 70 to 80 | > 3000 |  |  |  |  |  |  |  |  |
| CN1CC[C@@H](Nc2cccn3c(CC(F)(F)F)c(C#CCCN)nc23)[C@@H](F)C1 [Example 74, (3S,4R)—N-[2-(4-aminobut-1-yn-1-yl)-3-(2,2,2-trifluoroethyl)imidazo[1,2-a]pyridin-8-yl]-3-fluoro-1-methylpiperidin-4-amine] | > 3000 | ≥ 10000 | > 3000 | 100 to 1000 | 5 to 10 | < 70 | > 3000 |  |  |  |  |  |  |  |  |
| CNC(=O)c1ccc(OC)c(NCC#Cc2cc3c(N[C@@H]4CCN(C)C[C@@H]4F)cccn3c2SC(F)(F)F)c1 [Example 124, 3-{[3-(8-{[(3S,4R)-3-fluoro-1-methylpiperidin-4-yl]amino}-3-[(trifluoromethyl)sulfanyl]indolizin-2-yl)prop-2-yn-1-yl]amino}-4-methoxy-N-methylbenzamide] | < 750 | 5000 to 8000 | < 750 | < 10 |  | > 90 | < 750 |  |  |  |  |  |  |  | ≥ 10 |
